# Experimental data reported in the supplement of paper PMC10307832.
# Columns and labels:
# Assay in all cases: relative viability (nuclei count vs DMSO), 5 days (fraction); higher = more cells survive
# TPCA-1 = compound: C1=CC(=CC=C1C2=CC(=C(S2)NC(=O)N)C(=O)N)F [TPCA-1]
# How it was run: (§1)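 Viability was defined as treated-well nuclei divided by vehicle-well nuclei, with the median taken over replicate plates. Cells from lung cancer lines sat overnight at 37 °C in 1536-well plates, received five √10-spaced library-drug doses by pinning on vehicle-anchored plates, and grew 5 days without medium change before one-step fixation, permeabilisation and Hoechst staining, 4× imaging and MetaXpress nuclear counts. Only plates with control CV under 25% and at least one doubling were kept.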
# [1] = compound: C1/C(=C\C2=CC=CS2)/C(=O)/C(=C/C3=CC=CS3)/C1
# How it was run: as §1
# Lestaurtinib = compound: C[C@]12O[C@H](C[C@]1(O)CO)n1c3ccccc3c3c4c(c5c6ccccc6n2c5c31)CNC4=O [Lestaurtinib]
# How it was run: as §1
cell line,measurement,setting,value
UMC-11,relative viability,TPCA-1; 0.04 µM,1.03
same,relative viability,TPCA-1; 0.1265 µM,0.87
same,relative viability,TPCA-1; 0.4 µM,1.03
same,relative viability,TPCA-1; 1.265 µM,0.976
same,relative viability,TPCA-1; 4 µM,0.374
same,relative viability,[1]; 0.2 µM,0.975
same,relative viability,[1]; 0.6325 µM,0.993
same,relative viability,[1]; 2 µM,0.954
same,relative viability,[1]; 6.325 µM,0.711
same,relative viability,[1]; 20 µM,0.941
same,relative viability,Lestaurtinib; 0.005 µM,1.01
same,relative viability,Lestaurtinib; 0.01581 µM,0.958
same,relative viability,Lestaurtinib; 0.05 µM,0.615
same,relative viability,Lestaurtinib; 0.1581 µM,0.353
same,relative viability,Lestaurtinib; 0.5 µM,0.19
